Experimental data as given in the OPERA property sets (Mansouri et al. 2018).
Where a SMILES comes first, the peptide text is derived from it.

SMILES | logP
CCCCC(O)C(CCCCOc1ccc(F)cc1)n1cncn1 (stereo not drawn) | 3.38
CNCc1ccc(C)cc1 | 1.96
Clc1ccc(/C=N/OCCc2nc(-c3ccccc3)n[nH]2)cc1 | 2.83
Clc1cc(-c2ccc(Cl)c(Cl)c2Cl)cc(Cl)c1Cl | 7.6
Cc1c2oc(=O)ccc2c(C)c2c(C)coc12 | 3.35
CC#CC(=O)c1c(C)nc2c3c(c(C(=O)N(C)C)cn12)CCC(c1ccccc1)O3 (stereo not drawn) | 3.4
c1ccc(CCCc2ccccc2)cc1 | 3.43
CC(C)CC(N)C(=O)N1CCCC1C(=O)NC(CC(C)C)C(=O)O (stereo not drawn) | -1.56
Cc1cc2ccc3occ(C)c3c2oc1=O | 2.97
COC1(OC)C(N2CCOCC2)=NC(=O)N1c1ccc(Cl)cc1 | 1.7
CCSc1cccc2nc(N)nc(N)c12 | 2.27
CCCNC1CCc2c(O)cccc2C1C (stereo not drawn) | 2.88
C=CC1(C)C=C2CCC3C(C)(CO)CCCC3(C)C2CC1 (stereo not drawn) | 6.85
CC(C)NC(=S)NS(=O)(=O)c1cnccc1NC1CCCCCCC1 | 4.2
CC1NCCc2c1[nH]c1ccc([N+](=O)[O-])cc21 (stereo not drawn) | 2.07
NC(=O)c1cccc2nc(N)nc(N)c12 | -0.33
O=c1cc(-c2ccccc2Cl)oc2ccccc12 | 3.61
Cc1ccc(Cc2c[nH]cn2)cc1C | 2.72
Cc1ccc(CO)c(C=NNC(=O)c2cccs2)c1O | 3.03
COc1ccc(-c2cc(=O)ss2)cc1 | 3.19
c1ccc(CSSc2ncc[nH]2)cc1 | 3.05
CN(C)CCOc1cc2c(c3ccccc13)-c1ccccc1C2=O | 4.32
CCCCOc1cccc(NC(=O)OCCN2CCCCC2)c1 | 5.04
COc1ccc(CCNCC(O)COc2ccc(-c3nc(C(C)=O)c[nH]3)cc2)cc1OC (stereo not drawn) | 2.7
CCOP(=O)(Oc1ccc(C#N)cc1)c1ccccc1 (stereo not drawn) | 2.44
CSc1ccc2nc(-c3ccc(N)cc3)cn2c1 | 2.9

SMILES | logP
Nc1nnnn1-c1cccc(O)c1 | 0.56
c1nc(N2CCCCC2)c2[nH]cnc2n1 | 2.11
CNc1nc(NC)nc(NC(C)C)n1 | 1.87
COC(=O)c1ccc(OP(=O)(NC(C)C(=O)OC)OCC2C=CC(n3cc(C)c(=O)[nH]c3=O)O2)cc1 (stereo not drawn) | 1.01
CC(=O)OCC1OC(n2ccc(=O)[nH]c2=O)C(OC(C)=O)C1OC(C)=O (stereo not drawn) | -0.36
CCCNCc1ccc(C)cc1 | 2.96
O=c1[nH]c2cc(Cl)ccc2c(O)c1-c1cccc(Cc2ccc(CCN3CCOCC3)cc2)c1 | 5.2
Cc1ccc(CO)c(C=NNC(=O)c2cccc(Br)c2)c1O | 3.91
Cc1sc2cc3oc(=O)cc(C)c3cc2c1C | 3.48
O=c1cc(-c2ccccc2Cl)oc2ccc(Cl)cc12 | 4.09
CCCCCNc1ncnc2c1ncn2C1OC(CO)C(O)C1O (stereo not drawn) | 1.67
CC1(C(=O)O)CSC(c2ccc(O)cc2O)=N1 (stereo not drawn) | 1.3
OCCCCNc1ncnc2c1ncn2C1OC(CO)C(O)C1O (stereo not drawn) | -0.62
Cc1cc(=O)oc2c(C)c3occc3cc12 | 2.82
COc1cccc(OCC2CN=C(N)O2)c1 (stereo not drawn) | 1.34
CCCCCC(=O)OCC(=O)C1(O)C(C)CC2C3CCC4=CC(=O)C=CC4(C)C3(F)C(O)CC21C (stereo not drawn) | 4.3
CCNCc1ccc(C)cc1 | 2.38
CSc1cccc2nc(N)nc(N)c12 | 1.81
NC(N)=NCCCNC(=O)[C@@H]1CCCCN1C(=O)[C@@H](CC1CCCCC1)NCC(=O)O | -0.1
N=C(N)Nc1nc(-c2ccc(N)cc2)cs1 | 1.08
CC(C)(O)C1CCC2(C)CCCC(C)(O)C2C1 (stereo not drawn) | 3.04
O=C1C(O)N=C(c2ccccc2)c2cc([N+](=O)[O-])ccc2N1CCO (stereo not drawn) | 0.72
COc1ccc(C2Cc3c(cccc3C(F)(F)F)N(CCN(C)C)C(=O)C2OC(C)=O)cc1 (stereo not drawn) | 4.9
CCCc1ccc(CNc2[nH]cnc3ncnc2-3)cc1 | 3.72
C=C(C)C(=O)OCCCCCCCCCCCC | 6.57
CCCCCCN=C=S | 3.98

SMILES | logP
CCOCCCNc1ncnc2c1ncn2C1OC(CO)C(O)C1O (stereo not drawn) | 0.22
CCCCCCCOc1ccccc1NC(=O)OC(C)CN(CC)CC (stereo not drawn) | 5.7
CCN(CC)CCNC(=O)c1c(C)cccc1C | 2.22
O=C1N=C(N2CCOCC2)CN1c1ccc(Cl)cc1 | 1.5
Cn1c2c(c3cc([N+](=O)[O-])ccc31)CCNC2 | 2.07
Clc1ccc(N2CCN(CCn3nnc4ccccc43)CC2)cc1 | 3.4
Brc1ccc2ccc3c(Br)ccc4ccc1c2c43 | 6.69
CCOC(=O)c1c[nH]c2ccccc12 | 3.04
CCC(C)C(N)C(=O)N1CCCC1C(=O)NCC(=O)NC(C(=O)O)C(C)CC (stereo not drawn) (H-IPGI-OH; configuration not given here) | -1.69
O=C(NC1CCCCCC1)NS(=O)(=O)c1cnccc1NC1CCCCC1 | 4.62
CCc1c(O)c(=O)ccn1CCCO | -0.44
CCCCC(=O)c1ccncc1 | 2
NCC(=O)NC(Cc1ccccc1)C(=O)NC(Cc1ccccc1)C(=O)O (stereo not drawn) (H-Gly-Phe-Phe-OH; configuration not given here) | -1.33
COc1cccc(C(O)C(C(=O)O)c2ccc(-c3ccccc3)cc2)c1 (stereo not drawn) | 3.53
NC1CCN(c2nc3c(cc2F)c(=O)c(C(=O)O)cn3-c2ccc(F)cc2F)C1 (stereo not drawn) | -0.46
CCCCOCCCCCNC(=O)NC12CC3CC(CC(C3)C1)C2 | 5
O=c1ccc(/C=C/c2ccc(-n3ccnc3)cc2)n[nH]1 | 1.21
CC(C)CC(NC(=O)CNC(=O)C(NC(=O)C(Cc1ccccc1)NC(=O)C(N)C(C)C)C(C)C)C(=O)O (stereo not drawn) (H-VFVGL-OH; configuration not given here) | -0.97
CC(=NNC(=O)c1ccc([N+](=O)[O-])cc1)c1cnccn1 | 2.1
O=C(O)CCCON=C(c1ccccc1)c1cncnc1 | 2.2
Cc1ccc(CO)c(C=NNC(=O)c2ccc(N)cc2)c1O | 2.16
COc1coc(CSC(=S)N(C)C)cc1=O | 1.14
CCCN(CC)CC(=O)Nc1c(C)cccc1C | 2.74
COc1ccc(CCNCC(O)COc2ccc(-c3nc(-c4cccs4)c[nH]3)cc2C)cc1OC (stereo not drawn) | 4.8
CCOC(=O)C1=C(C)NC(C)=C(C(=O)OC)C1c1cccc(OC)c1OC (stereo not drawn) | 3.58
CC(C)=CCNc1ncnc2nc[nH]c12 | 2.2

SMILES | logP
CCCN(CCC)C1CCc2c(O)cccc2C1C (stereo not drawn) | 4.06
OCC1OC(n2cnc3c(NCc4ccco4)ncnc32)C(O)C1O (stereo not drawn) | 0.52
CC(=O)Nc1ccc(S(=O)(=O)Nc2cc(C)nc(C)n2)cc1 | -0.14
CSCC[C@H](N)C(=O)N1CCC[C@H]1C(=O)O (H-Met-Pro-OH) | -2.52
CCCCCCCCOC(=O)c1cccnc1 | 4.71
O=[N+]([O-])c1ccc(-n2cccn2)cc1 | 2.25
C=CCN(N=O)C(=O)N(CCCCC(NC(C)=O)C(=O)NCc1ccccc1)Cc1ccccc1 (stereo not drawn) | 2.7
O=C1C=C(N2CCOCC2)C(=O)N1c1ccc(F)cc1 | 1.5
NC1=NCC(CN2CCC(c3ccccc3)CC2)O1 (stereo not drawn) | 1.96
CNC(Cc1ccccc1)C(=O)N1CCCC1C(=O)NCC1CCC(N)CC1 (stereo not drawn) | 1.12
CC(C)NCC(O)COc1ccc(-c2ncc[nH]2)cc1 (stereo not drawn) | 1.4
CCC(C)C(N)C(=O)NC(C)C(=O)NC(C)C(=O)NC(C(=O)O)C(C)CC (stereo not drawn) (H-IAAI-OH; configuration not given here) | -2.82
Cc1cccc(C)c1OCC1CN=C(N)O1 (stereo not drawn) | 2
OCC1OC(Oc2ccc3cc(Br)ccc3c2)C(O)C(O)C1O (stereo not drawn) | 1.97
CC(C)C(NC(=O)C(N)Cc1ccc(O)cc1)C(=O)NC(Cc1ccccc1)C(=O)O (stereo not drawn) | -1.37
CCCCCCOc1ccc(CC(=O)O)cc1OC | 3.3
CCCOc1ccc(CNc2[nH]cnc3ncnc2-3)cc1 | 3.15
CC(C)CC(N)C(=O)NC(Cc1ccc(O)cc1)C(=O)O (stereo not drawn) | -1.94
OCC1OC(Oc2ccc(-c3ccccc3)cc2)C(O)C(O)C1O (stereo not drawn) | 1.79
Cc1ccc(-n2nnnc2N)cc1Cl | 1.89
CC1=CCCC(C)C12CCC(C(C)(C)O)C2 (stereo not drawn) | 4.59
N#CN=C1NCCN1Cc1cnccc1Cl | 0.77
CC(=NNC(=S)N(C)C)c1cc(C)ccc1O | 2.26
CCCNC(C)C(=O)Nc1c(C)csc1C(=O)OC (stereo not drawn) | 1.89
CC(C)=CC1C(C(=O)OCc2cccc(I)c2)C1(C)C (stereo not drawn) | 6.61
Clc1ccc(-c2cnn(-c3ccccn3)c2)cc1 | 4.3

SMILES | logP
COc1ccc(C2Cc3cc(Sc4ccccc4)ccc3N(CCN(C)C)C(=O)C2OC(C)=O)cc1 (stereo not drawn) | 5.8
O=C1C=C(N2CCCC2)CN1c1ccc(Cl)cc1 | 2.6
CN(C)CCOC(=O)c1ccc(C(F)(F)F)cc1 | 2.88
CCCCCI | 3.62
CSCCC(N)C(=O)NC(CC(C)C)C(=O)NC(Cc1ccccc1)C(=O)O (stereo not drawn) | -1.03
CC(=O)NCCCCCN(O)C(=O)CCC(=O)NCCCCCN(O)C(=O)CCC(=O)NCCCCCN(O)C(C)=O | -0.03
O=C(O)CCCCON=C(c1cccc(C(F)(F)F)c1)c1ncccn1 | 2.77
CC(C)SCc1cc(=O)c(O)co1 | 1.17
O=C(NCC(F)(F)F)NS(=O)(=O)c1cnccc1NC1CCCCCC1 | 3.85
CC(C)NC(=NC#N)NS(=O)(=O)c1cnccc1Nc1cccc(Br)c1 | 2.27
CCOC(=O)c1ccc(N=NN(C)C(=O)OCOC(=O)C(C)NC(C)=O)cc1 (stereo not drawn) | 2.73
CCOP(=O)(OCC)C(C)(C)[N+]([O-])=Cc1ccncc1 | 0.32
CCOC(=O)C1=C(C)NC(C)=C(C(=O)OC)C1c1cc(OC)cc(OC)c1 (stereo not drawn) | 4.08
O=C(O)CCCON=C(c1ccccc1)c1ncccn1 | 1.64
CCCCNC(=O)N1C(=O)N(C)CC1O (stereo not drawn) | 1.38
S=C=NCCCCc1ccccc1 | 4
CCN(CC)CCC(=O)Nc1ccccc1 | 2.31
CC(C)(C)c1ccc(C(CCN2CCCCC2)c2ccccc2)cc1 (stereo not drawn) | 6.83
CCc1cccc(COC(=O)C2C(C=C(C)C(=O)OC)C2(C)C)c1 (stereo not drawn) | 5.42
NC(=O)Cc1c[nH]c2ccccc12 | 0.75
CCCCN(C)CC(=O)Nc1c(C)cccc1C | 2.74
CC(C)CC(N)C(=O)NC(CC(C)C)C(=O)N1CCCC1C(=O)NC(CC(C)C)C(=O)O (stereo not drawn) (H-LLPL-OH; configuration not given here) | -1
CCON=C(C)c1cccc(Oc2nc(OC)cc(OC)n2)c1C(=O)OC | 2.96
O=C(Nc1ncnc2nc[nH]c12)c1ccccc1 | 1.12
